Results published in patent US20210238136A1, “AZETIDINE DERIVATIVE, AND PRODRUG THEREOF” (DAIICHI SANKYO COMPANY, LIMITED, priority 2018, published 2021).

How the values were obtained:
NZB/W F1 mice = test: Survival of NZB/W F1 mice that naturally develop SLE-like symptoms and nephritis; assay type: in vivo, mouse (NZB/W F1); settings: oral from the age of 12 weeks; Example 44 at 30, 100 mg/kg BID; MMF 60 mg/kg QD; Vehicle survival rate 35%
Description: FIG. 4 is a graph showing the effect of the compound of Example 44 in NZB/W F1 mice that naturally develop SLE-like symptoms and nephritis. To NZB/W F1 mice, the compound of Example 44 was orally administered at 30, 100 mg/kg, BID, and MMF was orally administered at 60 mg/kg, QD, starting at the age of 12 weeks. The vertical axis indicates the survival rate and the horizontal axis indicates the period. Both of the Vehicle group and the compound of Example 44 administration group was at N=20, and the MMF administration group was at N=15. The surviving days was analyzed by the Kaplan-Meier method, and the group in which the p-value was 0.001 or less compared to the Vehicle group by the log rank test is shown by ***.
Effect of Compound of Example 44 in NZB/W F1 Mice that Naturally Develop SLE-Like Symptoms and Nephritis
To NZB/W F1 mice that naturally develop SLE-like symptoms and nephritis, test substance was forcibly orally administered (0.2 mL/mouse) twice daily with a feeding needle, starting at the age of 12 weeks. The compound of Example 44 was orally administered at 30, 100 mg/kg, BID, and MMF was orally administered at 60 mg/kg, QD. […] Mice were observed daily, and those that reached a dying state such as weight loss and dyspnea were euthanized, and the survival rate was evaluated. The number of survival days was analyzed by the Kaplan-Meier method and the log rank test was performed. […]

mouse acute GVHD model = test: Mouse acute GVHD model, IFN-γ concentration in plasma; assay type: in vivo, mouse (BDF1 host, C57BL/6N donor); settings: for effective dose, suppression of IFN-γ in plasma: oral, twice daily from Day 0, plasma on Day 7, significant relative to the Vehicle group
Description: FIG. 2 is a graph showing the effect of the compound of Example 89 in mouse acute GVHD models. The compound of Example 89 was orally administered at 1.5, 5, 15, or 50 mg/kg, BID. The vertical axis is the concentration of interferon gamma (sometimes abbreviated herein as IFN-γ or IFN-g) in blood on day 7 after elicitation in the model.
Effect of Test Substance in Mouse Acute GVHD Model
A mouse acute graft-versus-host disease (GVHD) model was generated in accordance with a previous report (Puliaev R et al. Differential requirement for IFN-gamma in CTL maturation in acute murine graft-versus-host disease. J Immunol. 173, 910-9 (2004)). Splenocytes were prepared from euthanized donor mice (C57BL/6N), suspended in PBS without hemolysis of erythrocytes, and administered to host mice, BDF1 mice, from the tail vein (the number of transfer cells was adjusted to be 7 to 8×10^7 cells/0.2 mL/mouse in every test, and matched between individuals within the same test). In the Normal group, 0.2 mL of PBS was administered in place of the cells. The test substance was crushed in an agate mortar, and then suspended in a 0.5% hydroxypropyl cellulose (HPC) solution to prepare a dosage solution. In the Vehicle group, 0.5% HPC was used as a dosage solution. To the host mice, the dosage solution was forcibly orally administered (0.2 mL/mouse) twice daily with a feeding needle from the morning of Day 0 (cell transfer) to the end of the experiment. The tail vein was cut without anesthesia on Day 7 and a small amount of blood was collected with a hematocrit tube (EDTA). Plasma was collected by centrifugation and IFN-γ concentration in plasma was measured with an αLISA kit (Mouse IFN-γ alphaLISA, PerkinElimer, AL501C). […] For the difference between the Normal group and the Vehicle group, comparison between two groups was performed by Student's t-test. The difference between the Vehicle group and the test substance administration group was analyzed by a parametric multiple-comparison test, Dunnett test.

mouse chronic GVH model = test: Kidney disorder in mouse chronic GVH model, urine protein/creatinine ratio; assay type: in vivo, mouse (BDF1 host, DBA2 donor); settings: for minimum effective dose / effective dose, urine protein/creatinine ratio: oral, twice daily from Day 4, urine on Day 32, p-value of 0.05 or less relative to the Vehicle group
Description: FIG. 3 is a box plot graph showing the effect of the compound of Example 89 on renal disorder in mouse chronic GVH models. The compound of Example 89 was orally administered at 1.5, 5, 15, or 50 mg/kg, BID, and MMF was orally administered at 30 mg/kg, BID. […] The boxes in the graph represent box plots of the median and the quartile range for each group at N=12. The plots show the values of each individual. Both between the non-elicitation group (Normal group) and the Vehicle group, and between the Vehicle group and the MMF group were compared by the Wilcoxon test (non-parametric, two-group comparison). # means that the p-value is 0.05 or less, and $$ means that the p-value is 0.01 or less, respectively. The Vehicle group and the compound group of Example 89 were analyzed by the Shirley-Williams test (non-parametric, multiple comparisons with dose response). The groups in which the p-value is 0.01 or less and 0.001 or less are shown by ** and ***, respectively.
Effect of Test Substance on Kidney Disorder in Mouse Chronic GVH Model
A mouse chronic graft-versus-host (GVH) model was generated in accordance with a previous report (Via CS. Advances in lupus stemming from the parent-into-F1 model. Trends Immunol. 31, 236-45 (2010)). Splenocytes were prepared from euthanized donor mice (DBA2 mice), suspended in PBS without hemolysis of erythrocytes, and administered to host mice, BDF1 mice, from tail veins (1×10^8 cells/0.2 mL/mouse) at Day 0 and Day 4, twice. In the Normal group, 0.2 mL of PBS was administered in place of the cells. The test substance was crushed in an agate mortar, and then suspended in a 0.5% hydroxypropyl cellulose (HPC) solution to prepare a dosage solution. In the Vehicle group, 0.5% HPC was used as a dosage solution. To the host mice, the dosage solution was forcibly orally administered (0.2 mL/mouse) twice daily with a feeding needle from Day 4 (second cell transfer) to the end of the experiment. Urine was collected on Day 32 under free diet with a metabolic cage. Urine protein concentration was measured with a urine protein test kit (total protein kit microTP test wako, FUJIFILM Wako Pure Chemical Corporation, pyrogallol red method), and urine creatinine concentration was measured using a creatinine test kit (LabAssay™ creatinine, FUJIFILM Wako Pure Chemical Corporation, Jaffe method), and the ratio of urine protein to creatinine was calculated for each individual. […] For the difference between the Normal group and the Vehicle group, the Wilcoxon test (non-parametric, comparison between two groups) was performed, and for the difference between the Vehicle group and the test substance administration group, the analysis was performed by the Shirley-Williams test (non-parametric, multiple comparison with dose response).

Compound	survival until the end of the experiment (age of 44 weeks) (NZB/W F1 mice)	effective dose, suppression of IFN-γ in plasma (mouse acute GVHD model)	minimum effective dose / effective dose, urine protein/creatinine ratio (mouse chronic GVH model)	effect on urine protein/creatinine ratio (mouse chronic GVH model; oral 1.5, 5, 15, or 50 mg/kg BID, Day 32)	effect on IFN-γ in plasma (mouse acute GVHD model; oral 1.5, 5, 15, or 50 mg/kg BID, Day 7)
COc1c(C)c2c(c(O)c1C/C=C(\C)CCC(=O)OCCN1CCOCC1)C(=O)OC2 [MMF, mycophenolate mofetil, reference compound]	no death was observed	–	–	–	–
CC(OC(=O)N[C@@H](Cc1cccc(S(=O)(=O)N2CC(Oc3ccc(F)cc3)(c3ccccc3)C2)c1)C(=O)O)OC(=O)C(C)(C)C (stereo partly drawn) [Example 44, (2S)-3-(3-((3-(4-Fluorophenoxy)-3-phenylazetidin-1-yl)sulfonyl)phenyl)-2-(((1-(pivaloyloxy)ethoxy)carbonyl)amino)propanoic acid]	no death was observed	≥ 10 mg/kg, BID	–	–	–
CC(C)C(=O)O[C@@H](C)OC(=O)N[C@@H](Cc1cccc(S(=O)(=O)N2CC(Oc3ccc(F)cc3)(c3ccccc3)C2)c1)C(=O)O [Example 104, (S)-3-(3-((3-(4-Fluorophenoxy)-3-phenylazetidin-1-yl)sulfonyl)phenyl)-2-((((R)-1-(isobutyryloxy)ethoxy)carbonyl)amino)propanoic acid]	–	≥ 15 mg/kg, BID	15 mg/kg, BID	–	–
C[C@H](OC(=O)N[C@@H](Cc1cccc(S(=O)(=O)N2CC(Oc3cccc(F)c3)(c3ccccc3)C2)c1)C(=O)O)OC(=O)C(C)(C)C [Example 97]	–	–	15 mg/kg, BID	–	–
CC(=O)O[C@@H](C)OC(=O)N[C@@H](Cc1cccc(S(=O)(=O)N2CC(Oc3cccc(F)c3)(c3ccccc3)C2)c1)C(=O)O [Example 89, (S)-2-((((R)-1-Acetoxyethoxy)carbonyl)amino)-3-(3-((3-(3-fluorophenoxy)-3-phenylazetidin-1-yl)sulfonyl)phenyl)propanoic acid]	–	≥ 1.5 mg/kg, BID	15 mg/kg, BID	suppressed the urine protein/creatinine ratio in a dose-dependent manner	inhibited IFN-γ in plasma in a dose-dependent manner
